Measured values: patent US10807958B2, “1,4-bis(3-aminopropyl)piperazine derivative and its use” (INSERM (Institut National de la Sante et de la Recherche …, priority 2015, dated 2020)

Test system: Neuroblastoma SKNSH-SY5Y cells expressing the human Tau isoform 412
Experiment: 1D gel electrophoresis / Western blot of Tau expression and phosphorylation in treated cells
Type: cell-based
Conditions: 10 μM, vs induced but non-treated condition, FIG. 1
From the text: Pan-Tau and phospho-dependent Tau antibodies included Tau-Nter (M19G, 1/10 000, Sergeant et al., 1999), Tau-Cter (1/10 000, Sergeant et al., 1999, Le Freche et al., 2012), Tau-1 (1/5000, Merck Millipore), S199P (directed against the phospho-serine 199, 1/4000, Sergeant et al., 1999), Tau-Phospho S396 (directed against the phosphor-serine 396, 1/10000, Lifetechnologies), Tau-Phospho 404 (1/10 000, Lifetechnologies), 422 (clone 2H9, a homemade monoclonal antibody developed against a phospho-peptide containing the phosphorylated serine 422 residue of Tau, numbering according to the longest human brain Tau-441 isoform), AT8 (1/1000, Thermo Scientific), AT270 (1/2000, Thermo Scientific), AT100 (1/1000, Thermo Scientific). Neuron specific enolase (1/10 000), β-actin (1/5000) and β-tubulin (1/10 000) were from Sigma-Aldrich.
Human neuroblastoma cell line SKNSH-SY5Y cells expressing the human Tau isoform 412 (with the exon 2 and 10 encoding sequences) (or SY5Y-Tau46) was as previously described in Bretteville et al., 2009.
Neuroblastoma SKNSH-SY5Y cells expressing the human Tau isoform 412 (with the exon 2 and 10 encoding sequences) were treated with 10 μM of the hydrochloride salt of N-[3-(4-{3-[Bis(2-methylpropyl)amino]propyl}piperazin-1-yl)propyl]-1,2,3,4-tetrahydroacridin-9-amine (Example 6, hereinafter named “Compound I⋅HCl”) which was diluted in the culture medium as described in Bretteville et al., 2009.
For the western-blot analysis of Tau proteins, SDS-PAGE was performed according to the manufacturer's instructions using Bis-Tris 4-12% gradient acrylamide gel (NuPage® Bis-Tris PreCast 12 wells, Life Technologies). The apparent molecular weights were calibrated using the molecular weight markers (Novex and Magic Marks, Life Technologies). Electrophoresis was performed under a continuous tension of 100V/per gel for 1 h. […]
The effect of the compound of Formula I on Tau phosphorylation was analyzed in vitro and in vivo. […]
Expression and total phosphorylation was assessed by 1D and 2D gel electrophoresis using phospho-dependent and pan-Tau antibodies (FIGS. 1 and 2). […]

CC(C)CN(CCCN1CCN(CCCNc2c3c(nc4ccccc24)CCCC3)CC1)CC(C)C [compound of Formula I, N-[3-(4-{3-[Bis(2-methylpropyl)amino]propyl}piperazin-1-yl)propyl]-1,2,3,4-tetrahydroacridin-9-amine]
Tau phosphorylation at serine 199 (S199P antibody): reduced
Tau phosphorylation at serine 396 (S396 antibody): reduced
Tau expression (pan-Tau antibodies): No significant change
